Test results reported in patent publication US12459912B2 (priority 2020, dated 2025).
“And” between values parts separate entries of the source, which are not always exact repeats. Equal values may be shown once.

Experiments:
[1] = biological target: 5-Hydroxytryptamine (Serotonin) Receptor 2B (5-HT2B) (Homo sapiens, UniProt P41595); assay: 5-HT2B/Calcium Flux; format: cell-based; conditions: EC50 (μM)
[2] = biological target: T1, 5-Hydroxytryptamine (Serotonin) Receptor 3A (5-HT3A) (Homo sapiens, UniProt P46098); assay: 5-HT3A/Ion Channel; format: cell-based; conditions: EC50 (μM)
T1 construct: expressed in transfected cells

[3] = biological target: ADRA2A (Adrenergic Receptor on α2A) (Homo sapiens, UniProt P08913); assay: ADRA2A/cAMP; format: cell-based
[4] = biological target: ADRB2 (Adrenergic Receptor β2) (Homo sapiens, UniProt P07550); assay: ADRB2/cAMP; format: cell-based; conditions: EC50 (μM)
[5] = biological target: ADRB1 (Adrenergic Receptor β1) (Homo sapiens, UniProt P08588); assay: ADRB1/cAMP; format: cell-based
[6] = biological target: CHRM3 (Muscarinic acetylcholine Receptor M3) (Homo sapiens, UniProt P20309); assay: cell-based
[7] = biological target: DRD2S (Dopamine Receptor D2) (Homo sapiens, UniProt P14416); assay: DRD2S/cAMP; format: cell-based
[8] = biological target: OPRK1 (Opioid Receptor Kappa 1) (Homo sapiens, UniProt P41145); assay: OPRK1/cAMP; format: cell-based
[9] = biological target: T2, nAChR(a4/b2) (Nicotinic acetylcholine Receptor α4 β2) (Homo sapiens, UniProt P17787+P43681); assay: cell-based; conditions: EC50 (μM)
T2 construct: expressed in transfected cells

[10] = tested on: T3, GABAA (Gamma-aminobutyric acid Receptor A); format: cell-based
T3 construct: other: opener

[11] = biological target: T4, NMDAR (1A/2B) (N-methyl-D-aspartate (NMDA) Glutamate Receptor 1A/2B) (Homo sapiens, UniProt Q05586+Q13224); assay: NMDAR (1A/2B)/Ion Channel; format: cell-based
T4 construct: expressed in transfected cells

[12] = biological target: T5, VEGFR2 (Vascular endothelial growth factor receptor 2 (KDR tyrosine kinase)) (Homo sapiens, UniProt P35968); assay: biochemical; format: binding
T5 construct: made in house; host or cells: E. coli BL21-derived host (T7 phage) or HEK-293

In the case of `CNC(C)Cc1ccc2ccsc2c1` (stereo not drawn) [drawing 522], the EC50 ([1]; agonist) is reported as over 10 µM, the EC50 ([1]; antagonist) is reported as 0.072 µM and the EC50 ([2]; blocker) is reported as 5.18 µM. It also gave an EC50 ([2]; opener) of over 10 µM, an EC50 [3] of over 10 µM and an EC50 ([4]; agonist) of over 10 µM. The EC50 ([4]; antagonist) was 5.79 µM, the EC50 [5] was over 10 µM and the EC50 [6] was over 10 µM. For the same compound, the EC50 [7] was over 10 µM, the EC50 [8] was over 10 µM and the EC50 [9] was > 10 µM and 4.44 µM. The EC50 [10] was over 10 µM, the EC50 [11] was over 10 µM and the EC50 [12] was over 10 µM.
